Measurements as given in article PMC6399333, “Synthetic energy sensor AMPfret deciphers adenylate-dependent AMPK activation mechanism” (Nature Communications, 2019).

Experiments:
[1] = target: T1, AMPK γ1 subunit (in the α2β2γ1 AMPfret heterotrimer) (Rattus norvegicus, UniProt P80385); assay: fluorometric FRET titration of the purified sensor, single-site fit; assay type: binding
T1 construct: gene Prkag1; with AMPK α2 (PRKAA2, Rattus norvegicus) and AMPK β2 (PRKAB2, Homo sapiens)

[2] = target: T1, AMPK γ1 subunit (in the α2β2γ1 AMPfret heterotrimer); assay: fluorometric FRET titration of the purified sensor, single-site fit; also allosteric activation in kinase assay; assay type: binding
Excerpt: fluorometric FRET titration of the purified sensor, single-site fit; also allosteric activation in kinase assay on AMPK γ1 subunit (in the α2β2γ1 AMPfret heterotrimer) | AMPfret reports binding of AMP (in absence of ATP) at one or more binding sites

T1 sequence (P80385 whole entry): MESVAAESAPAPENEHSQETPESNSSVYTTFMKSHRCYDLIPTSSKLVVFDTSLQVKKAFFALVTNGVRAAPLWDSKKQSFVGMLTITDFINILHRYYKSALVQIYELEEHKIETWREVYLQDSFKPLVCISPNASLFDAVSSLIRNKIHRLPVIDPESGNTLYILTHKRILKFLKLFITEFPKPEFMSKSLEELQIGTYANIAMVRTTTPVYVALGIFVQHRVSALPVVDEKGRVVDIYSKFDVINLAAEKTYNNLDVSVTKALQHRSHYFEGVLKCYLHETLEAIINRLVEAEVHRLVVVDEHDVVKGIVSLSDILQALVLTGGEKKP
T1 sequence (Q09137 whole entry partner): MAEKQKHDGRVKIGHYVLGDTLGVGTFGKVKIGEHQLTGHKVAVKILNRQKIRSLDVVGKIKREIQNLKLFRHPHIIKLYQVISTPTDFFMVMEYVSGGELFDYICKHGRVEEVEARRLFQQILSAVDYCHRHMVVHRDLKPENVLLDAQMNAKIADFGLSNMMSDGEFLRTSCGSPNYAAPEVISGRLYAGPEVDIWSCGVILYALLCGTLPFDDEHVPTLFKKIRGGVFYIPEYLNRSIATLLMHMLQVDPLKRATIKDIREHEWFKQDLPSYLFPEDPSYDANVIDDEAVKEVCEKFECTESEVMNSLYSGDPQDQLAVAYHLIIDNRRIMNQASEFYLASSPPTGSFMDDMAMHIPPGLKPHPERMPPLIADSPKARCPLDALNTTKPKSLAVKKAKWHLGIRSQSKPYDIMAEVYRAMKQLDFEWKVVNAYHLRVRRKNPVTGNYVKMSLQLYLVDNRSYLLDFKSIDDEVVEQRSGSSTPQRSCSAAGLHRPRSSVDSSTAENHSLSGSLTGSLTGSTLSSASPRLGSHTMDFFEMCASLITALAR
T1 sequence (O43741 whole entry partner): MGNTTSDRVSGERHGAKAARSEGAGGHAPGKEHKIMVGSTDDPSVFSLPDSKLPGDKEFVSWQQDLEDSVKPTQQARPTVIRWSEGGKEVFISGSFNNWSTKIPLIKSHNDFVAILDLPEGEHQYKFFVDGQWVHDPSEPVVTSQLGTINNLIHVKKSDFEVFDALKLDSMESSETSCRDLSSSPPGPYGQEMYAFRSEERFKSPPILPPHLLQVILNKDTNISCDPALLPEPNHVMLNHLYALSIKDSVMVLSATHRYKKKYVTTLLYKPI

| Kd [1] [µM] | Kd [2] [µM] | SMILES |
| --- | --- | --- |
| 7.5 |  | Nc1ncnc2c1ncn2[C@@H]1O[C@H](COP(=O)(O)OP(=O)(O)O)[C@@H](O)[C@H]1O [ADP] |
|  | ~1.5 | Nc1ncnc2c1ncn2[C@@H]1O[C@H](COP(=O)(O)O)[C@@H](O)[C@H]1O [AMP] |
